The source made the active and inactive calls. No cut-off for these calls is given here.
Assays:
Rattus norvegicus [1] = assay: Antiinflammatory activity against carrageenan-induced paw edema in Wistar rat at 5 mg/kg, po; assay type: functional
Rattus norvegicus [2] = assay: Antiinflammatory activity against carrageenan-induced paw edema in Wistar rat at 1.7 mg/kg, po; assay type: functional, organism-based; set-up: dose 1.7 mg/kg
Rattus norvegicus [3] = assay: Antiinflammatory activity against carrageenan-induced paw edema in Wistar rat at 1.08 mg/kg, po; assay type: functional, organism-based; set-up: dose 1.08 mg/kg
Rattus norvegicus [4] = assay: Antiinflammatory activity against carrageenan-induced paw edema in Wistar rat at 1.3 mg/kg, po; assay type: functional, organism-based; set-up: dose 1.3 mg/kg
Rattus norvegicus [5] = assay: Antiinflammatory activity against carrageenan-induced paw edema in Wistar rat at 1.8 mg/kg, po; assay type: functional, organism-based; set-up: dose 1.8 mg/kg

## COc1ccc2c(c1)c(CC(=O)O)c(C)n2C(=O)c1ccc(Cl)cc1 [INDOMETHACIN]
Rattus norvegicus [1]
  inhibition in vivo at 5 mg/kg: 85%

## CC(=O)OC[C@H]1O[C@@H](O[C@H]2CC[C@]3(C)C4=C(CCC3C2)C2=CCC[C@@]2(C2[C@H]3O[C@]5(C)OC[C@H](C)C5(O)[C@H]3O[C@@H]2O)CC4)[C@H](O[C@@H]2O[C@H](CO)[C@H](O)[C@H](O)[C@H]2O)[C@@H](O)[C@@H]1O (stereo not given in full)
Rattus norvegicus [2]
  Activity: inactive

## C[C@H]1CO[C@@]2(C)O[C@@H]3C([C@@]45CCC=C4C4=C(CC5)[C@@]5(C)CC[C@H](O[C@@H]6O[C@H](CO)[C@@H](O)[C@H](O)[C@H]6O[C@@H]6O[C@H](CO)[C@H](O)[C@H](O)[C@H]6O)CC5CC4)[C@@H](O)O[C@@H]3C12O (stereo not given in full)
Rattus norvegicus [3]
  Activity: inactive

## C[C@@]12CCC[C@H]1C1=C(CC2)[C@@]2(C)CC[C@H](O[C@@H]3O[C@H](CO[C@@H]4O[C@H](CO)[C@@H](O)[C@H](O)[C@H]4O)[C@@H](O)[C@H](O)[C@H]3O)CC2CC1 (stereo not given in full)
Rattus norvegicus [4]
  Activity: inactive

## C[C@@]12CCC[C@H]1C1=C(CC2)[C@@]2(C)CC[C@H](O[C@@H]3O[C@H](CO[C@@H]4O[C@H](CO)[C@@H](O)[C@H](O)[C@H]4O)[C@@H](O)[C@H](O)[C@H]3O[C@@H]3O[C@H](CO)[C@H](O)[C@H](O)[C@H]3O)CC2CC1 (stereo not given in full)
Rattus norvegicus [5]
  Activity: inactive

Reference: ChEMBL document CHEMBL1146499, “New compounds from an extract of Vernonia colorata leaves with anti-inflammatory activity” (2004)
